Values of other authors, collected in article PMC8463262 (Acta Pharmaceutica Sinica. B, 2020).
pIC50: −log10 of the molar value.

Test system: PRMT5
Conditions: read-out: IC50 PRMT5

For `CCNC(=O)NCCSC[C@H]1O[C@@H](n2cnc3c(N)ncnc32)[C@H](O)[C@@H]1O` [DS437], the pIC50 is listed as 5.22.
